# Tested on: CXC-chemokine receptor
# Assay: activity as a CXC-chemokine receptor ligand
# Details: qualitative statement, no method or figures given
row,activity as a CXC-chemokine receptor ligand,SMILES
1,particularly active,CC[C@@H](Nc1c(Nc2cccc(C(=O)N(C)C)c2O)c(=O)c1=O)c1ccc(C)o1 [Anhydrous Compound A]
2,substantially similar activity,CC[C@@H](Nc1c(Nc2cccc(C(=O)N(C)C)c2O)c(=O)c1=O)c1ccc(C)o1 [monohydrate form of Compound A]
